Laboratory results published in patent publication US10344026B2, “Compositions and methods of targeting mutant K-ras” (NANTBIO, INC., priority 2017, dated 2019).

Experiments:
Format in all cases: cell-based
Panc1-G12D = assay: Viability assay (CellTiterBlue, 72 hr) Panc1; conditions: Homo sapiens, PANC-1, GI50, CellTiterBlue, Panc1 K-Ras G12D, read-out: 72 hr Cell Viability Panc1 (G12D)
Procedure, shortened: (§1)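 Fluorescence at Ex550/Em590, read 3 hr after CellTiterBlue addition, served as the viability signal following 72 hr compound treatment. Wells held 1000 cells, pre-incubated 18 hr at 37 °C, with 0.5% DMSO final. GI50 derived with DMSO as 100% and 100 uM tamoxifen as 0% viability.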

[1] = tested on: phospho-ERK in HCC827 (Wild-type); assay: In-Cell Western phospho-ERK, HCC827; conditions: Homo sapiens, 1 h; HCC827, one hour treatment; read-out: In-Cell Western HCC827 (Wild-type) Erk (P)
Procedure: (§2) In-cell phosphorylation assays for Erk and Akt were performed on several of the compounds and exemplary results are shown in Table 3 below using HCC827 and A375 cell lines for wild type K-Ras and Panc1 and Panc10.05 cell lines for G12D K-Ras mutants. Results are expressed in μM and corresponding structures are shown in FIGS. 2A-2G and Examples 1-152, above.
(§3) Cells are seeded in complete medium into black sided, clear-bottom 384-well microplates at 3000 cells/[…]/well. Plates are returned to 37° C. CO2 incubator for 18 hr. Drug is made as 200× in DMSO and diluted into medium to 10×. To each well is added 4 ul 10× test article or controls, and plates are returned to the incubator. Final assay DMSO concentration is 0.5%. After one hour, cells are fixed in formaldehyde, rinsed & permeabilized with triton X-100, and blocked with BSA/Goat serum blocking solution. Primary phospho-Akt and phospho-ERK antibodies are added and plates are incubated overnight at 4° C. Plates are rinsed with Tween-20 wash buffer and secondary antibody (Goat anti-rabbit, Thermofisher) is added. After 2 hours, plates are rinsed in Tween-20 wash buffer, and then PBS. Plates are imaged on the Celigo (Nexcelom) and cellular fluorescence is quantitated. Full inhibition of phospho-Akt is achieved with 1 uM BEZ235 (Sellekchem), while full inhibition of phospho-ERK is achieved with 1 uM MEK Inhibitor II Calbiochem). EC50 values are calculated using Graphpad Prism.

[2] = tested on: phospho-Akt in Panc1 (G12D); assay: In-Cell Western phospho-Akt, Panc1; conditions: Homo sapiens, PANC-1, 1 h; Panc1, one hour treatment; read-out: In-Cell Western Panc1 (G12D) Akt (P)
Procedure, shortened: (§4)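 In-cell immunofluorescence: after 1 h compound exposure (final DMSO 0.5%) of cells plated 18 h beforehand, fixed cells were probed overnight at 4 °C with phospho-Akt/phospho-ERK antibodies and imaged. Maximal inhibition defined by 1 uM MEK Inhibitor II for pERK, 1 uM BEZ235 for pAkt; EC50 calculated.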

[3] = tested on: phospho-ERK in Panc10.05 (G12D); assay: In-Cell Western phospho-ERK, Panc10.05; conditions: Homo sapiens, Panc1005, 1 h; Panc10.05, one hour treatment; read-out: In-Cell Western Panc10.05 (G12D) Erk (P)
Procedure, shortened: as §4

[4] = tested on: phospho-ERK in A375 (Wild-type); assay: In-Cell Western phospho-ERK, A375; conditions: Homo sapiens, A-375, 1 h; A375, one hour treatment; read-out: In-Cell Western A375 (Wild-type) Erk (P)
Procedure: as §2, §3

[5] = tested on: phospho-Akt in A375 (Wild-type); assay: In-Cell Western phospho-Akt, A375; conditions: Homo sapiens, A-375, 1 h; A375, one hour treatment; read-out: In-Cell Western A375 (Wild-type) Akt (P)
Procedure: as §2, §3

HCT116-G31D = assay: Viability assay (CellTiterBlue, 72 hr) HCT116; conditions: Homo sapiens, HCT-116, GI50, CellTiterBlue, HCT116 K-Ras G13D, read-out: 72 hr Cell Viability HCT116 (G13D)
Procedure, shortened: as §1

[6] = tested on: A375 (K-Ras wild type cell line); assay: Viability assay (CellTiterBlue, 72 hr) A375; conditions: Homo sapiens, A-375, GI50, CellTiterBlue
Procedure: Viability assays were performed on exemplary compounds and Table 2 below lists exemplary results for selected compounds tested on K-Ras wild type cell lines (Ishikawa, U87-MG, HCC827, and A375) and various K-Ras mutant cell lines (Panc1-G12D; Panc10.05-G12D; HCT116-G31D). Results are expressed in μM and corresponding structures are shown in FIGS. 2A-2G and Examples 1-152, above.
Cells are counted and seeded at 1000 cells/36 ul medium/well into 384-well microplates. Cells are returned to 37° C. CO2 incubator for 18 hr. Drug is made as 200× in DMSO and diluted into medium to 10×. To each well is added 4 ul 10× drug, and plates are returned to the incubator. Final assay DMSO concentration is 0.5%. After 72 hr, 8 ul CellTiterBlue (Promega) is added to each well. After 3 hr, fluorescence (Ex550/Em590) is determined on the Victor Plate Reader (Perkin Elmer). Assay range is determined by DMSO control (100% viability) and 100 uM tamoxifen (0% viability). GI50 values are calculated using Graphpad Prism.

[7] = tested on: U87-MG (K-Ras wild type cell line); assay: Viability assay (CellTiterBlue, 72 hr) U87-MG; conditions: Homo sapiens, U-87 MG, GI50, CellTiterBlue, U87-MG K-Ras wild-type
Procedure, shortened: as §1

K-Ras G12D = molecular target: T1, K-Ras G12D (Homo sapiens, UniProt P01116, G12D); assay: G-LISA Ras activation, 293H cells transfected with G12D mutant; conditions: compound 1 hour
T1 construct: expressed in transfected cells; host or cells: 293H cells
T1 sequence (P01116 whole entry G12D): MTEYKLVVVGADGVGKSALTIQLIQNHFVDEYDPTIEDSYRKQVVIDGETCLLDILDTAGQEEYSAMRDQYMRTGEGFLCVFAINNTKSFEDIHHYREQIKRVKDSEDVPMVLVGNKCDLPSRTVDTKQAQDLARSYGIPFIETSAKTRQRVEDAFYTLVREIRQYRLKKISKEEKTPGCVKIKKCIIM
Procedure, shortened: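 293H cells were transfected with wild-type or mutant Ras plasmid (Lipofectamine 3000), then exposed next day to compounds at 3.125-25 μM for 1 hour. Wild-type transfectants received 100 ng/ml EGF for 2 minutes before ice-cold PBS wash, lysis on ice and G-LISA readout of active Ras.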

[8] = tested on: phospho-ERK in Panc1 (G12D); assay: In-Cell Western phospho-ERK, Panc1; conditions: Homo sapiens, PANC-1, 1 h; Panc1, one hour treatment; read-out: In-Cell Western Panc1 (G12D) Erk (P)
Procedure, shortened: as §4

Panc10.05-G12D = assay: Viability assay (CellTiterBlue, 72 hr) Panc10.05; conditions: Homo sapiens, Panc1005, GI50, CellTiterBlue, Panc10.05 K-Ras G12D, read-out: 72 hr Cell Viability Panc10.05 (G12D)
Procedure, shortened: as §1

[9] = tested on: phospho-Akt in Panc10.05 (G12D); assay: In-Cell Western phospho-Akt, Panc10.05; conditions: Homo sapiens, Panc1005, 1 h; Panc10.05, one hour treatment; read-out: In-Cell Western Panc10.05 (G12D) Akt (P)
Procedure: as §2, §3

[10] = tested on: Ishikawa (K-Ras wild type cell line); assay: Viability assay (CellTiterBlue, 72 hr) Ishikawa; conditions: Homo sapiens, GI50, CellTiterBlue, Ishikawa K-Ras wild-type
Procedure, shortened: as §1

[11] = tested on: HCC827 (K-Ras wild type cell line); assay: Viability assay (CellTiterBlue, 72 hr) HCC827; conditions: Homo sapiens, GI50, CellTiterBlue, HCC827 K-Ras wild-type
Procedure, shortened: as §1

Compound | IC50 (Panc1-G12D) [µM] | EC50 [1] [µM] | EC50 [2] [µM] | EC50 [3] [µM] | EC50 [4] [µM] | EC50 [5] [µM] | IC50 (HCT116-G31D) [µM] | IC50 [6] [µM] | IC50 [7] [µM] | IC50 (K-Ras G12D) [µM] | EC50 [8] [µM] | IC50 (Panc10.05-G12D) [µM] | EC50 [9] [µM] | IC50 [10] [µM] | IC50 [11] [µM]
Cc1nc(C)c(C(=O)Nc2nc(-c3ccc4c(c3)CCC(=O)N4CCC(=O)N(C)C)cs2)o1 [Compound 103, N-(4-(1-(3-(dimethylamino)-3-oxopropyl)-2-oxo-1,2,3,4-tetrahydroquinolin-6-yl)thiazol-2-yl)-2,4-dimethyloxazole-5-carboxamide] | > 25 | 14 | > 25 | > 25 | 29 | > 25 | 25 | > 25 | > 25 | 14.9 | > 25 | 5 | > 25 | > 25 | > 25
Cc1nc(C(=O)Nc2nc(-c3ccc4c(c3)CCC(=O)N4)cs2)c(C)s1 [Compound 20, 2,5-dimethyl-N-(4-(2-oxo-1,2,3,4-tetrahydroquinolin-6-yl)thiazol-2-yl)thiazole-4-carboxamide] | > 25 | > 25 | > 25 | > 25 | > 25 | > 25 | > 25 | > 25 | > 25 |  | > 25 | > 25 | > 25 | > 25 | > 25
Cc1nc(C2CCCCC2)oc1C(=O)Nc1nc(-c2ccc3c(c2)CCC(=O)N3Cc2cccnc2)cs1 [Compound 101, 2-cyclohexyl-4-methyl-N-(4-(2-oxo-1-(pyridin-3-ylmethyl)-1,2,3,4-tetrahydroquinolin-6-yl)thiazole-2-yl)oxazole-5-carboxamide] | 2 | 14 | > 25 | 3 | > 25 | > 25 | 14 | 4 | > 25 | 9.3 | 18 | 4 | > 25 | 2 | > 25
CCc1nc(C)c(C(=O)Nc2nc(-c3ccc4c(c3)CCC(=O)N4Cc3cncnc3)cs2)o1 [Compound 104, 2-ethyl-4-methyl-N-(4-(2-oxo-1-(pyrimidin-5-ylmethyl)-1,2,3,4-tetrahydroquinolin-6-yl)thiazol-2-yl)oxazole-5-carboxamide] | 22 | > 25 | > 25 | > 25 | > 25 | > 25 | 5 | 6 | > 25 |  | > 25 | 17 | > 25 | > 25 | > 25
Cc1nc(C)c(C(=O)Nc2nc(-c3ccc4c(c3)CCC(=O)N4Cc3cccnc3C#N)cs2)o1 [Compound 94, N-(4-(1-((2-cyanopyridin-3-yl)methyl)-2-oxo-1,2,3,4-tetrahydroquinolin-6-yl)thiazol-2-yl)-2,4-dimethyloxazole-5-carboxamide] | > 25 | > 25 | > 25 | > 25 | > 25 | > 25 | > 25 | > 25 | > 25 |  | > 25 | > 25 | > 25 | > 25 | > 25
O=C1CCc2cc(-c3csc(NC(=O)c4ccnn4-c4ccccc4)n3)ccc2N1 [Compound 47, N-(4-(2-oxo-1,2,3,4-tetrahydroquinolin-6-yl)thiazol-2-yl)-1-phenyl-1H-pyrazole-5-carboxamide] | > 25 | > 25 | > 25 | > 25 | > 25 | > 25 | > 25 | > 25 | > 25 |  | > 25 | > 25 | > 25 | > 25 | > 25
Cn1nc(-c2ccccc2)cc1C(=O)Nc1nc(-c2ccc3c(c2)CCC(=O)N3)cs1 [Compound 48, 1-methyl-N-(4-(2-oxo-1,2,3,4-tetrahydroquinolin-6-yl)thiazol-2-yl)-3-phenyl-1H-pyrazole-5-carboxamide] | > 25 | > 25 | > 25 | > 25 | > 25 | > 25 | > 25 | > 25 | > 25 |  | > 25 | > 25 | > 25 | > 25 | > 25
Cn1nc(C(F)(F)F)cc1C(=O)Nc1nc(-c2ccc3c(c2)CCC(=O)N3)cs1 [Compound 50, 1-methyl-N-(4-(2-oxo-1,2,3,4-tetrahydroquinolin-6-yl)thiazol-2-yl)-3-(trifluoromethyl)-1H-pyrazole-5-carboxamide] | > 25 | 13 | > 25 | > 25 | > 25 | > 25 | > 25 | > 25 | > 25 |  | > 25 | > 25 | > 25 | > 25 | > 25
